Experimental data as given in patent US20230227449A1, “AMIDOPYRIMIDONE DERIVATIVES” (Hoffmann-La Roche Inc., priority 2020, published 2023).

Target: Recombinant human Mat2a (Homo sapiens, UniProt P31153)
Assay: Determination of Mat2A activity (384 well absorbance-based assay, Biomol Green)
Type: biochemical
Conditions: 12.5 nM Mat2A, 100 μM ATP and Methionine, 2% DMSO, 120 minutes at RT, absorbance at 635 nm
Experimental: Determination of Mat2A activity
Measurement of Mat2A inhibition is performed in 384 well format absorbance-based assay. Recombinant human Mat2a (12.5 nM) and serial diluted compounds in DMSO (range of concentrations from […] to 508 pM) or controls (DMSO) are incubated for 15 minutes at room temperature (RT) in assay buffer containing 50 mM HEPES pH 7.5, 50 mM KCl, 50 mM MgCl2, 0.01% Tween 20 and 10 mM DTT. The reaction is initiated by the addition of the combined substrates ATP and Methionine, each at a final concentration of 100 μM. Final assay condition are 12.5 nM Mat2A, 100 μM ATP and Methionine Substrates and 2% DMSO. After 120 minutes of incubation at RT, the reaction is stopped by the addition of Biomol Green. The absorbance signal is measured at λ=635 nm with a multiplate reader (BMG Pherastar reader or equivalent) after 30 min of equilibration at RT.

Chain of Recombinant human Mat2a (P31153 whole entry): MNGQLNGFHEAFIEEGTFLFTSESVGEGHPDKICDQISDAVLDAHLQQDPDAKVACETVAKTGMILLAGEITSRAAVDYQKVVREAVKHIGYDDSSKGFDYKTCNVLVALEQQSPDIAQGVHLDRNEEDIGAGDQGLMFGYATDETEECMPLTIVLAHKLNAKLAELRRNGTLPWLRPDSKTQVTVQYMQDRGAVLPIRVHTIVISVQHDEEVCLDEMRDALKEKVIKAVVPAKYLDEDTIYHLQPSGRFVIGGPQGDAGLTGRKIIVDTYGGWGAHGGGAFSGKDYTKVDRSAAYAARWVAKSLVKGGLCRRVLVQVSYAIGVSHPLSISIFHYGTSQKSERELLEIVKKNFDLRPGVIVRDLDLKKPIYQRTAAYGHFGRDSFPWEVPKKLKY

Row | IC50 [nM] | Compound
1 | < 13 | Cc1c(F)cccc1-n1c(=O)nc(N)c2ccc(C3CC3)nc21 [Example 25, 4-amino-7-cyclopropyl-1-(3-fluoro-2-methylphenyl)pyrido[2,3-d]pyrimidin-2(1H)-one]
2 | < 13 | Cc1ncccc1-n1c(=O)nc(N)c2ccc(C(F)(F)F)nc21 [Example 32, 4-amino-1-(2-methylpyridin-3-yl)-7-(trifluoromethyl)pyrido[2,3-d]pyrimidin-2(1H)-one]
3 | < 13 | Cc1ncncc1-n1c(=O)nc(N)c2ccc(C3CC3)nc21 [Example 42, 4-amino-7-cyclopropyl-1-(4-methylpyrimidin-5-yl)pyrido[2,3-d]pyrimidin-2(1H)-one]
4 | < 13 | Nc1nc(=O)n(-c2cccnc2C(F)(F)F)c2nc(C3CC3)ccc12 [Example 43, 4-amino-7-cyclopropyl-1-(2-(trifluoromethyl)pyridin-3-yl)pyrido[2,3-d]pyrimidin-2(1H)-one]
5 | < 13 | Cn1nccc1-n1c(=O)nc(N)c2ccc(C3CC3)nc21 [Example 44, 4-amino-7-cyclopropyl-1-(2-methylpyrazol-3-yl)pyrido[2,3-d]pyrimidin-2-one]
6 | < 13 | Cc1ccncc1-n1c(=O)nc(N)c2ccc(C3CC3)nc21 [Example 47, 4-amino-7-cyclopropyl-1-(4-methylpyridin-3-yl)pyrido[2,3-d]pyrimidin-2(1H)-one]
7 | 19 | Cc1ncoc1-n1c(=O)nc(N)c2ccc(C3CC3)nc21 [Example 50, 4-amino-7-cyclopropyl-1-(4-methyloxazol-5-yl)pyrido[2,3-d]pyrimidin-2-one]
8 | < 13 | Cc1ncsc1-n1c(=O)nc(N)c2ccc(C3CC3)nc21 [Example 51, 4-amino-7-cyclopropyl-1-(4-methylthiazol-5-yl)pyrido[2,3-d]pyrimidin-2-one]
9 | < 13 | Cc1ncccc1-n1c(=O)nc(N)c2ccc(C3CCC3)nc21 [Example 53, 4-amino-7-cyclobutyl-1-(2-methyl-3-pyridyl)pyrido[2,3-d]pyrimidin-2-one]
10 | < 13 | Cc1ncccc1-n1c(=O)nc(N)c2ccc(C3CCCC3)nc21 [Example 56, 4-amino-7-cyclopentyl-1-(2-methyl-3-pyridyl)pyrido[2,3-d]pyrimidin-2-one]
11 | 20 | COc1nccc(F)c1-n1c(=O)nc(N)c2ccc(C3CC3)nc21 [Example 60, 4-amino-7-cyclopropyl-1-(4-fluoro-2-methoxypyridin-3-yl)pyrido[2,3-d]pyrimidin-2(1H)-one]

Further lines, the compound ahead of its results:

Row | Compound | IC50 [nM]
12 | CC(C1CCCO1)n1c(=O)nc(N)c2ccc(C3CC3)nc21 (stereo not shown) [Example 21, 4-amino-7-cyclopropyl-1-(1-(tetrahydrofuran-2-yl)ethyl)pyrido[2,3-d]pyrimidin-2(1H)-one] | 86
13 | Cc1ncccc1-n1c(=O)nc(N)c2ccc(C3COC3)cc21 [Example 22, 4-amino-1-(2-methylpyridin-3-yl)-7-(oxetan-3-yl)quinazolin-2(1H)-one] | 21
14 | Nc1nc(=O)n([C@@H]2CCCOC2)c2nc(C3CC3)ccc12 [Example 26, 4-amino-7-cyclopropyl-1-[(3R)-oxan-3-yl]pyrido[2,3-d]pyrimidin-2-one] | < 13
15 | Nc1nc(=O)n([C@H]2CCCOC2)c2nc(C3CC3)ccc12 [Example 27, 4-amino-7-cyclopropyl-1-[(3S)-oxan-3-yl]pyrido[2,3-d]pyrimidin-2-one] | 42
16 | CC1COCC1n1c(=O)nc(N)c2ccc(C3CC3)nc21 (stereo not shown) [Example 28, 4-amino-7-cyclopropyl-1-(4-methyltetrahydro-furan-3-yl)pyrido[2,3-d]pyrimidin-2(1H)-one] | 57
17 | Cc1ncccc1-n1c(=O)nc(N)c2ccc(C(F)(F)F)cc21 [Example 29, 4-amino-1-(2-methylpyridin-3-yl)-7-(trifluoromethyl)quinazolin-2-one] | < 13
18 | Cc1ncccc1-n1c(=O)nc(N)c2ccc(OC3CC3)cc21 [Example 31, 4-amino-7-cyclopropyloxy-1-(2-methylpyridin-3-yl)quinazolin-2-one] | 18
19 | Nc1nc(=O)n(C2CCC(O)C2)c2nc(C3CC3)ccc12 (stereo not shown) [Example 33, 4-amino-7-cyclopropyl-1-(3-hydroxycyclopentyl)pyrido[2,3-d]pyrimidin-2(1H)-one] | < 13
20 | Cc1ncccc1-n1c(=O)nc(N)c2ccc(OC(F)F)cc21 [Example 34] | < 13
21 | Cc1ncccc1-n1c(=O)nc(N)c2ccc(C(F)F)cc21 [Example 35, 4-amino-7-(difluoromethyl)-1-(2-methylpyridin-3-yl)quinazolin-2(1H)-one] | < 13
22 | Cc1ncccc1-n1c(=O)nc(N)c2cc(C#N)c(C3CC3)nc21 [Example 37, 4-amino-7-cyclopropyl-1-(2-methylpyridin-3-yl)-2-oxo-1,2-dihydropyrido[2,3-d]pyrimidine-6-carbonitrile] | 15
23 | COc1c(C#N)cccc1-n1c(=O)nc(N)c2ccc(C(C)C)nc21 [Example 38, 3-(4-amino-7-isopropyl-2-oxopyrido[2,3-d]pyrimidin-1(2H)-yl)-2-methoxybenzonitrile] | < 13
24 | COc1ccc2c(N)nc(=O)n(-c3cccnc3C)c2c1 [Example 39, 4-amino-7-methoxy-1-(2-methylpyridin-3-yl)quinazolin-2(1H)-one] | < 13
25 | Cc1ncccc1-n1c(=O)nc(N)c2ccc(OC(F)(F)F)cc21 [Example 40, 4-amino-1-(2-methylpyridin-3-yl)-7-(trifluoromethoxy)quinazolin-2(1H)-one] | < 13
26 | Cc1ncccc1-n1c(=O)nc(N)c2ccc(C3=COCC3)nc21 [Example 41, 4-amino-7-(4,5-dihydrofuran-3-yl)-1-(2-methylpyridin-3-yl)pyrido[2,3-d]pyrimidin-2 (1H)-one] | 45
27 | Nc1nc(=O)n(-c2cccc3c2CCO3)c2cc(C3CC3)ccc12 [Example 45, 4-amino-7-cyclopropyl-1-(2,3-dihydrobenzofuran-4-yl)quinazolin-2(1H)-one] | < 13
28 | Nc1nc(=O)n([C@@H]2CCCOC2)c2cc(C(F)(F)F)ccc12 [Example 46, (R)-4-amino-1-(tetrahydro-2H-pyran-3-yl)-7-(trifluoromethyl)quinazolin-2(1H)-one] | 31
29 | CCc1ccc2c(N)nc(=O)n(-c3cccnc3C)c2c1 [Example 48, 4-amino-7-ethyl-1-(2-methylpyridin-3-yl)quinazolin-2(1H)-one] | < 13
30 | Cc1ccccc1-n1c(=O)nc(N)c2cnc(C3CC3)cc21 [Example 52, 4-amino-7-cyclopropyl-1-(o-tolyl)pyrido[4,3-d]pyrimidin-2(1H)-one] | 43
31 | COc1ncccc1-n1c(=O)nc(N)c2ccc(C3CCCCO3)nc21 (stereo not shown) [Example 54, 4-amino-1-(2-methoxy-3-pyridyl)-7-tetrahydropyran-2-yl-pyrido[2,3-d]pyrimidin-2-one] | 140
32 | Cc1ncncc1-n1c(=O)nc(N)c2ccc(C3CCCC3)nc21 [Example 55, 4-amino-7-cyclopentyl-1-(4-methylpyrimidin-5-yl)pyrido[2,3-d]pyrimidin-2-one] | 17
33 | Cc1ncccc1-n1c(=O)nc(N)c2ccc(C(C)(C)F)cc21 [Example 58, 4-amino-7-(2-fluoropropan-2-yl)-1-(2-methylpyridin-3-yl)quinazolin-2-one] | 22
34 | Cc1ncccc1-n1c(=O)nc(N)c2c(F)cc(C(F)(F)F)cc21 [Example 59, 4-amino-5-fluoro-1-(2-methylpyridin-3-yl)-7-(trifluoromethyl)quinazolin-2 (1H)-one] | 14
